Reference: patent US12296027B2, “Molecular renal probes for detecting acute kidney injury” (Nanyang Technological University, priority 2019, dated 2025)
Like-named read-outs stand apart in the source and are kept apart here.

Key:
[1] = cited from earlier work
[2] = Determination of GFR by FITC-inulin method in drug-treated mice; assay type: in vivo
Protocol: FITC-inulin (150 mg) was dissolved in 0.9% NaCl (3 ml) at 75° C. and dialysed in 0.9% NaCl (1000 ml) at room temperature for 24 h. Dialysed FITC-inulin (3.74 μl g^−1 […]), or at t=24, 36, 48, 96, or 144 h post-treatment of gentamicin (100 mg kg^−1 day^−1 body weight), or at t=2, 8, 16, 24, or 48 h post-treatment of diatrizoate (1000 mg kg^−1 body weight), or saline (0.2 ml) treated mice. Blood (approximately 20 μl) was collected via saphenous vein at 3, 7, 10, 15, 35, 55, and 75 min post-injection of FITC-inulin, and then centrifuged for 20 min at 3500 r.p.m. Serum sample (10 μl) was diluted with HEPES buffer (40 μl, 500 mM, pH 7.4) and fluorescence was measured using spectramax with excitation at 485 nm and emission at 538 nm. Serum fluorescence data were presented as a two-component exponential decay curve using nonlinear regression (3 mice were analysed for each sample). GFR was calculated according to the equation (Z. Qi, et al., Am. J. Physiol. Renal. Physiol. 2004, 286, F590-596): […], where I is the amount of FITC-inulin delivered by the bolus injection, A and B are the y-intercept values of the two decay rates, and α and β are the decay constants for the distribution and elimination phases, respectively.
FITC-inulin (150 mg) was dissolved in 0.9% NaCl (3 ml), heated at 75° C. and dialysed in 0.9% NaCl (1000 ml) at room temperature for 24 h. Dialysed FITC-inulin (3.74 μl g^−1 body weight) was i.v. injected into living mice at =2, 8, 16, 24, or 48 h post-treatment of diatrizoate (1 g kg^−1 body weight), or PBS (0.2 ml) treated mice, or NAC/DTZ co-treated mice. Blood (approximately 20 μl) was collected via tail vein at 3, 7, 10, 15, 35, 55, and 75 min post-injection of FITC-inulin, and then centrifuged for 15 min at 4500 r.p.m. Serum sample (10 μl) was diluted with PBS buffer (40 μl, 10 mM, pH 7.4) and fluorescence was measured using spectramax with excitation at 485 nm and emission at 538 nm. Serum fluorescence data were presented as a two-component exponential decay curve using nonlinear regression (3 mice were analysed for each sample). GFR was calculated according to the equation: […], where 1 is the amount of FITC-inulin delivered by the bolus injection, A and B are the y-intercept values of the two decay rates, and α and β are the decay constants for the distribution and elimination phases, respectively.

[3] = Commercial assays of serum and urinary kidney injury biomarkers in drug-treated mice; assay type: in vivo
Protocol: Urine was collected using metabolic cages from drug-treated mice at different timepoints post-treatment of drug. The collected urine samples were centrifuged at 4500 r.p.m. for 8 min and filtered by 0.22 μm syringe filter. MRPs1-3 solutions (30 μM) in PBS buffer (10 mM, pH 7.4) were incubated with the urine (100 μl) at 37° C., followed by fluorescence measurements on fluorescence spectrophotometer after 2 h incubation (9 mice were analysed for each sample). Urinary TFF3, osteopontin, NGAL, β2-Microglobulin, KIM-1, clusterin levels were quantified using ELISA kits according to the manufacturer's protocol (6 mice were analysed for each sample).
Blood was collected from the tail vein in living NCr nude mice under isoflurane anesthesia at t=8, 12, 16, 24, or 48 h post-treatment of cisplatin (20 mg kg^−1 body weight), or at t=24, 48, 72, 96, or 144 h post-treatment of gentamicin (100 mg kg^−1 day^−1 body weight), or at t=2, 8, 16, 24, or 48 h post-treatment of diatrizoate (1000 mg kg^−1 body weight), or saline (0.2 ml) treated mice. The collected blood samples were centrifuged for 20 min at 3500 r.p.m. Serum creatinine, BUN and cystatin C were determined using commercial kits according to the manufacturer's protocol (5 mice were analysed for each sample).
Blood was collected from the tail vein in living mice under isoflurane anesthesia at t=2, 8, 16, 24 or 48 h post-treatment of diatrizoate (1 g kg^−1 body weight), or PBS treated mice, or NAC/DTZ co-treated mice. The collected blood samples were centrifuged for 15 min at 4500 r.p.m. Serum creatinine and BUN were determined using commercial kits according to the manufacturer's protocol (3 mice were analysed for each sample).

[4] = in DMSO; cited from earlier work
[5] = Body weight of drug-treated mice; assay type: in vivo; details: BALB/c mice, single i.v. dose
Protocol: Mice were randomly selected and treated with cisplatin (5 mg kg^−1, 10 mg kg^−1 or 20 mg kg^−1 body weight, i.p. injection), gentamicin (100 mg kg^−1 day^−1, i.p. injection) or diatrizoate (1000 mg kg^−1 body weight, i.v injection, water deprivation for 24 h before treatment). The control groups were treated with saline (0.2 ml) or NAC (400 mg kg^−1 body weight, i.v injection) 30 min prior to cisplatin administration^50. Body weights of all the mice were recorded during treatment. After drug administration, the weight of mice and signs of discomfort were monitored on a daily basis during the entire experiments (FIG. 46). Imaging, blood and urine sampling were conducted at different timepoints post-treatment of drug. At the end, mice were euthanized and major organs were placed into 4% paraformaldehyde for histological examination.
For the doxorubicin model, dose-finding studies were first carried out to define an optimal dose of 10 mg kg^−1 body weight of doxorubicin. […] The corresponding MRP (40 mg kg^−1) was systematically injected through the tail vein at t=0, 2 d, 5 d, and 8 d post-treatment of DOX, and fluorescence images were acquired. […] Fluorescence images of living mice and urine samples were acquired for 0.1 s with excitation at 675±20 nm, and emission at 720±20 nm. Fluorescence images were analysed by ROI analysis using the Living Image 4.0 Software.

[6] = at first significant timepoint, initial studies
[7] = at first significant timepoint, subsequent studies

CNC(=O)c1c(I)c(NC(C)=O)c(I)c(C(=O)O)c1I [Iothalamate]
Renal clearance efficiency ([1]; in 24 h, S.D rat): 93.5% ID in 24 h

CC(=O)Nc1c(I)c(NC(C)=O)c(I)c(C(=O)O)c1I [diatrizoate]
decrease in GFR at 24 h post-treatment ([2]; mouse, in vivo): ~40% | decrease in GFR at 48 h post-treatment ([2]; mouse, in vivo): ~60% | decrease in GFR at timepoint of sCr/BUN increase ([2]; mouse, in vivo): ~50% | BUN relative to control groups ([3]; mouse, in vivo): 1.8 fold | sCr relative to control groups ([3]; mouse, in vivo): 1.7 fold | time of first statistically significant change of urinary NGAL and trefoil factor-3 ([3]; mouse, in vivo): 24 h | time of first statistically significant increase of urinary KIM-1 and clusterin ([3]; mouse, in vivo): 24 h | time of statistically significant change of urinary osteopontin ([3]; mouse, in vivo): 24 h | time of statistically significant change of urinary β2-microglobulin ([3]; mouse, in vivo): 48 h | time of statistically significant increase of sCr and BUN after treatment ([3]; mouse, in vivo): 24 h | urinary KIM-1 increase ([3]; mouse, in vivo): 3.7 fold | urinary NGAL change ([3]; mouse, in vivo): 2.3 fold | urinary NGAL change, alternative value ([3]; mouse, in vivo): 2.05 fold | urinary clusterin increase ([3]; mouse, in vivo): 3.0 fold | urinary osteopontin change ([3]; mouse, in vivo): 2.3 fold | urinary trefoil factor-3 change ([3]; mouse, in vivo): 0.5 fold | urinary β2-microglobulin change ([3]; mouse, in vivo): 3.6 fold

gentamicin
decrease in GFR at timepoint of sCr/BUN increase ([2]; 72 h cisplatin, 144 h gentamicin, 24 h diatrizoate): ~50% | urinary KIM-1 increase ([3]; at first significant timepoint): 2.2 fold | urinary NGAL change ([3]; at first significant timepoint): 2.0 fold | urinary NGAL change, alternative value ([3]; at first significant timepoint): 1.98 fold | urinary clusterin increase ([3]; at first significant timepoint): 3.5 fold | urinary osteopontin change ([3]; at first significant timepoint): 2.3 fold | urinary trefoil factor-3 change ([3]; at first significant timepoint): 0.3 fold | urinary β2-microglobulin change ([3]; at first significant timepoint): 3.2 fold | BUN increase [3, 6]: 2.23 fold | sCr increase [3, 6]: 2.82 fold | BUN increase [3, 7]: 2.4 fold | sCr increase [3, 7]: 2.9 fold | time of first statistically significant change of urinary NGAL and trefoil factor-3 ([3]; mouse, in vivo): 96 h | time of first statistically significant increase of urinary KIM-1 and clusterin ([3]; mouse, in vivo): 72 h | time of statistically significant change of urinary osteopontin ([3]; mouse, in vivo): 144 h | time of statistically significant change of urinary β2-microglobulin ([3]; mouse, in vivo): 144 h | time of statistically significant increase of sCr and BUN after treatment ([3]; nephrotoxic dose, mice): 144 h

CC(=O)N(CC(O)CO)c1c(I)c(C(=O)NCC(O)CO)c(I)c(C(=O)NCC(O)CO)c1I (stereo not drawn) [Iohexol]
Renal clearance efficiency ([1]; in 4 h, S.D rats): 59.7% in 4 h

N.N.[Cl][Pt][Cl] [cisplatin]
decrease in GFR at timepoint of sCr/BUN increase ([2]; mouse, in vivo): ~50% | time of first statistically significant change of urinary NGAL and trefoil factor-3 ([3]; mouse, in vivo): 48 h | time of first statistically significant increase of urinary KIM-1 and clusterin ([3]; mouse, in vivo): 24 h | time of increase of serum Cystatin C ([3]; mouse, in vivo): 48 h | time of statistically significant change of urinary osteopontin ([3]; mouse, in vivo): 72 h | time of statistically significant change of urinary β2-microglobulin ([3]; mouse, in vivo): 72 h | time of statistically significant increase of sCr and BUN after treatment ([3]; mouse, in vivo): 72 h | urinary KIM-1 increase ([3]; mouse, in vivo): 1.9 fold | urinary NGAL change ([3]; mouse, in vivo): 2.7 fold | urinary NGAL change, alternative value ([3]; mouse, in vivo): 2.72 fold | urinary clusterin increase ([3]; mouse, in vivo): 4.1 fold | urinary osteopontin change ([3]; mouse, in vivo): 2.3 fold | urinary trefoil factor-3 change ([3]; mouse, in vivo): 0.4 fold | urinary β2-microglobulin change ([3]; mouse, in vivo): 3.9 fold

CC1(C)C(/C=C/C=C/C=C/C=C2\N(CCCCS(=O)(=O)[O-])c3ccc4ccccc4c3C2(C)C)=[N+](CCCCS(=O)(=O)[O-])c2ccc3ccccc3c21.[Na+] [ICG]
fluorescence quantum yield (ϕ) of standard [4]: 13%

CNC(=O)CN(CCN(CCN(CC(=O)[O-])CC(=O)NC)CC(=O)[O-])CC(=O)[O-].[Gd+3] [Gd-DTPA-BMA]
Renal clearance efficiency ([1]; in 24 h, S.D Rats): 95% in 24 h

COc1cccc2c1C(=O)c1c(O)c3c(c(O)c1C2=O)C[C@@](O)(C(=O)CO)C[C@@H]3O[C@H]1C[C@H](N)[C@H](O)[C@H](C)O1 [DOX, doxorubicin]
mean body weight gain by day 16 [5]: 3% | mean body weight loss by day 8 [5]: approximately 6%
